# Reference: publication PMC7669867, “Synthesis and initial screening of lactate dehydrogenase inhibitor activity of 1,3-benzodioxole derivatives” (Scientific Reports, 2020)
# Where “and” joins values, the source holds several entries; their conditions need not be identical. Equal entries are not always repeated. Where two headings read alike, the source gives them in different places.
# Key:
# LDHA = conditions: cited from earlier work; for LDHA inhibitory activity: at concentrations up to 1 mM
# [1] = biological target: T1, purified recombinant human LDHA protein (Homo sapiens, UniProt P00338); assay: In vitro LDHA inhibitor activity (NADH fluorescence decrease); assay type: biochemical; conditions: for LDHB/LDHA: ratio of LDHB IC50 to LDHA IC50 (selectivity)
# T1 construct: purchased Abcam
# Experimental: (§1) The in vitro evaluation of the LDHA inhibitor activities of the synthesized compounds was determined by the NADH intensity decrease through oxidation in a solution of HEPES-K^+, NADH, and pyruvate at a pH = 7.2. The NADH oxidation fluorescence intensity was measured using a spectrofluorometer at 340 nm excitation and 460 nm emission wavelengths, representing the NADH-specific fluorescence spectrum. Furthermore, the in vitro evaluation of the LDHB inhibitor activity was determined as a reverse reaction, which converts lactate to pyruvate by determining the amount of NAD^+ converted to NADH using the above-mentioned spectrophotometric experimental setting (Table 2). Based on this analysis, the half-maximal inhibitory concentration (IC50) of the synthesized compounds was obtained.
# In vitro evaluation on LDHA inhibitor activity. LDHA activity assay was performed in accordance with previous studies[16],[18]. Briefly, the various concentrations of compounds were incubated with reaction buffer containing 20 mM HEPES-K^+, 20 μM NADH, 2 mM pyruvate, and 100 ng of purified recombinant human LDHA protein (Abcam, Cambridge, UK). The fluorescence of NADH, which has an excitation wavelength of 340 nm and an emission wavelength of 460 nm, was detected using a microplate spectrofluorometer (Spectramax M2; Molecular Devices, Sunnyvale, CA).
# [2] = biological target: T2, purified recombinant human LDHB protein (Homo sapiens, UniProt P07195); assay: In vitro LDHB activity assay (NAD+ converted to NADH); assay type: biochemical
# T2 construct: purchased Abcam
# T2 sequence (P07195 whole entry): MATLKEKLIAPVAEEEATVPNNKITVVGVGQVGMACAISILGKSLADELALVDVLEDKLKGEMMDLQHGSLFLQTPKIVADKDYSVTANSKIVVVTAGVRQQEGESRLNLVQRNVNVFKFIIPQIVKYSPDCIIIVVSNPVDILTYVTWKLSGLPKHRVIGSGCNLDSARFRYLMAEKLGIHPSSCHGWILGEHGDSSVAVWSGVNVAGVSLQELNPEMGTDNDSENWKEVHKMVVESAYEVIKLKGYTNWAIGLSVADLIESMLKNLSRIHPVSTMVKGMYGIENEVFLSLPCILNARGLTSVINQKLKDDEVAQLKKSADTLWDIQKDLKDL
# Experimental: as §1
# In vitro analysis was determined the amount of NAD^+ converted to NADH[33]. The assay mixture composed of 100 mM Tris–HCl buffer (pH 8.0), 200 mM sodium L-lactate, 2.5 mM NAD^+, and 100 ng of purified recombinant human LDHB protein (Abcam). The fluorescence intensity of NADH was measured using a spectrofluorometer (Spectramax M2) at 340 nm as excitation wavelength and 460 nm as emission wavelength which is the specific fluorescence of NADH.
# [3] = tested on: human lung cancer A549 cells; assay: Cell viability MTT assay, A549; assay type: cell-based; conditions: read-out: A549 (GI50)
# Experimental: (§2) The human pancreatic cancer cell lines, PANC-1 and MiaPaCa-2, human lung cancer A549 cells, human breast cancer MCF-7, and human glioma U87 cells were obtained from the Korean cell line bank (Seoul, Korea). The cells were cultured in Dulbecco’s Modified Eagle Medium (DMEM; ThermoFisher Scientific, Waltham, MA) supplemented with 10% fetal bovine serum (FBS; Sigma-Aldrich) and 1% penicillin/streptomycin (ThermoFisher Scientific). The cells were cultured at 37 °C in an atmosphere containing 5% CO2.
# (§3) The potential cytotoxicity of compounds at different concentrations was evaluated using the MTT assay. Briefly, cancer cell lines were pre-incubated in 96-well plates with compounds for 48 h. Subsequently, MTT working solution (2 mg/mL in phosphate buffer solution) was added to each well and the plate was incubated for 4 h at 37 °C in an atmosphere containing 5% CO2. Then, the conditioned media were aspirated, and the formed formazan crystals in living cells were quantified using the microplate reader (Spectramax M2) at 540 nm. The concentrations that produce 50% cell growth inhibition (GI50) were calculated by curves constructed by the plot of cell survival by an assistant of PRISM software (GraphPad, San Diego, CA).
# [4] = tested on: human breast cancer MCF-7; assay: Cell viability MTT assay, MCF-7; assay type: cell-based; conditions: read-out: MCF-7 (GI50)
# Experimental: as §2, §3
# [5] = tested on: human pancreatic cancer MiaPaCa-2 cells; assay: Cell viability MTT assay, MiaPaCa-2; assay type: cell-based; conditions: read-out: MiaPaCa-2 (GI50)
# Experimental: as §2, §3
# [6] = tested on: human pancreatic cancer PANC-1 cells; assay: Cell viability MTT assay, PANC-1; assay type: cell-based; conditions: read-out: PANC-1 (GI50)
# Experimental: as §2, §3
# human glioma U87 cells = assay: Cell viability MTT assay, U87; assay type: cell-based; conditions: U-87 MG, 48 h, read-out: U87 (GI50)
# Experimental: as §2, §3
# several cancer cells = assay: Cell viability MTT assay, several cancer cells; assay type: cell-based; conditions: Homo sapiens, cell line not given, read-out: concentration of half-maximal growth inhibition (GI50)
# Experimental: To assess the anticancer potency of these compounds in several cancer cells, we determined the cell toxicities of these compounds using an MTT assay. […] On the other hand, compound 10 has higher cytotoxicity compared to other compounds in various cancer cell lines. […] There is a small difference between standard compounds and compound 10 in growth inhibition of PANC-1 cells.
# as §3
# in vitro [7] = assay type: in vitro ADME, human; conditions: human, plasma
# Experimental: (§4) Human and rat plasma (Sigma-Aldrich) are incubated at 37 °C with test compounds. During the incubation, aliquots are withdrawn at 0, 30, 120 min time points and acetonitrile solution (containing chlorpropamide) is added. After vortexing, the aliquots are centrifuged and the supernatant is withdrawn for analysis by LC–MS/MS.
# in vitro [8] = assay type: in vitro ADME, rat; conditions: rat, plasma
# Experimental: as §4
# CYP2C19 = biological target: T3, CYP2C19 (Homo sapiens, UniProt P33261); assay: CYP isozymes activity assay, CYP2C19; assay type: in vitro ADME; conditions: pooled human liver microsomes, S-mephenytoin; ketoconazole at 0.1 µM
# T3 construct: Pooled Human liver microsomes (Sigma-Aldrich; 0.25 mg/mL); tissue Sigma-Aldrich; host or cells: pooled human liver microsomes
# T3 sequence (P33261 whole entry): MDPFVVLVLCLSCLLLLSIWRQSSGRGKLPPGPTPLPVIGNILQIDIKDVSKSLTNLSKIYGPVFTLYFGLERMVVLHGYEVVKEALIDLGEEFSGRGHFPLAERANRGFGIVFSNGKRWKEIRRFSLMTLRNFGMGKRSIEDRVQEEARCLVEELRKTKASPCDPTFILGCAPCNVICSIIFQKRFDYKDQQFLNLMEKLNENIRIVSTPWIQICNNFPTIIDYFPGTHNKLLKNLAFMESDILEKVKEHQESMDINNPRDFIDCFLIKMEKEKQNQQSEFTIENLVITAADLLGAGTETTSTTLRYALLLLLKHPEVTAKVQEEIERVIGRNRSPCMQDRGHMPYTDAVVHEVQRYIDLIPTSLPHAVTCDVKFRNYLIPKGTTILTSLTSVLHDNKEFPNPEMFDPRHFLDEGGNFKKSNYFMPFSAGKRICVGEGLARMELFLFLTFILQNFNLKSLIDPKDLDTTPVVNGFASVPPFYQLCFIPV
# Experimental: (§5) Pooled Human liver microsomes (Sigma-Aldrich; 0.25 mg/mL), 0.1 M phosphate buffer solution (pH 7.4), the five most commonly used substrate cocktails, such as 50 µM phenacetin (CYP1A2), 10 µM diclofenac […], 100 µM S-mephenytoin (CYP2C19) 5 µM dextromethorphan (CYP2D6), and 2.5 µM midazolam (CYP3A4), and compound 10 are pre-incubated at 37 °C for 5 min, then incubated with NADPH generation system solution for 15 min. To finish the enzymatic reaction, an acetonitrile solution (containing terfenadine) is added. The reaction tubes are centrifuged and the supernatant is withdrawn for analysis by LC–MS/MS.
# CYP2C9 = biological target: T4, CYP2C9 (Homo sapiens, UniProt P11712); assay: CYP isozymes activity assay, CYP2C9; assay type: in vitro ADME; conditions: pooled human liver microsomes, diclofenac; ketoconazole at 0.1 µM
# T4 construct: Pooled Human liver microsomes (Sigma-Aldrich; 0.25 mg/mL); tissue Sigma-Aldrich; host or cells: pooled human liver microsomes
# T4 sequence (P11712 whole entry): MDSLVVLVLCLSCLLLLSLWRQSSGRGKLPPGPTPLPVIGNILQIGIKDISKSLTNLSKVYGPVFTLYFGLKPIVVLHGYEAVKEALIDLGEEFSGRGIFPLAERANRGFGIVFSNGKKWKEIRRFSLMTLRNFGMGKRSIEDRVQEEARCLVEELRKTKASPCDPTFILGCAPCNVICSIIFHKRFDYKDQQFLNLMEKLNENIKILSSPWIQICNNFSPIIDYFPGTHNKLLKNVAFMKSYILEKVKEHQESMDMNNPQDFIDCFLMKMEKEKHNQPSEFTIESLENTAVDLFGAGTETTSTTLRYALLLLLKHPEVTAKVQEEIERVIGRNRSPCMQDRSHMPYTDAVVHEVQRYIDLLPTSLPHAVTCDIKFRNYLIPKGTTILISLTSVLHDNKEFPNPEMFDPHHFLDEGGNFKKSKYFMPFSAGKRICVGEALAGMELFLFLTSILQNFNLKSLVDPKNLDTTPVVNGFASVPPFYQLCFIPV
# Experimental: as §5
# CYP1A2 = biological target: T5, CYP1A2 (Homo sapiens, UniProt P05177); assay: CYP isozymes activity assay, CYP1A2; assay type: in vitro ADME; conditions: pooled human liver microsomes, phenacetin; ketoconazole at 0.1 µM
# T5 construct: Pooled Human liver microsomes (Sigma-Aldrich; 0.25 mg/mL); tissue Sigma-Aldrich; host or cells: pooled human liver microsomes
# T5 sequence (P05177 1-516): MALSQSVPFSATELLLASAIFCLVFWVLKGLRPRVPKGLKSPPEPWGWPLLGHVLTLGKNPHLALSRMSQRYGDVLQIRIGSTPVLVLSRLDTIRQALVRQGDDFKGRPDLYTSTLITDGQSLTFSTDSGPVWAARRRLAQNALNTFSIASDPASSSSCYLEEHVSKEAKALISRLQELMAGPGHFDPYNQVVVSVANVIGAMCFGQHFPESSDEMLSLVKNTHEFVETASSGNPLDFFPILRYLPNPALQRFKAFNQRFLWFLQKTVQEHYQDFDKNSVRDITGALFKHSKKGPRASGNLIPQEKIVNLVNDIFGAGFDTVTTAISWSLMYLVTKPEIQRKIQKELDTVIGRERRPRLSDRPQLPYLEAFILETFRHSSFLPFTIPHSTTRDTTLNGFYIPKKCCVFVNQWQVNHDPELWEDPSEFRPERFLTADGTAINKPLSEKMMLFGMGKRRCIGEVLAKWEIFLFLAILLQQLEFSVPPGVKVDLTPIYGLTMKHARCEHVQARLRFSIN
# Experimental: as §5
# [9] = synthesized compounds, read-out: LDHA IC50
# [10] = synthesized compounds, read-out: LDHB IC50
# [11] = Homo sapiens, PANC-1, MTT, 48 h
Molecule,"IC50 [1, 9]","IC50 [2, 10]","GI50 ([3]; A549, MTT, 48 h)","GI50 ([4]; MCF7, MTT, 48 h)","GI50 ([5]; MIA PaCa-2, MTT, 48 h)","GI50 [6, 11]",GI50 (human glioma U87 cells; MTT),also measured
"c1ccc2c(c1)OCO2 [1,3-benzodioxole]",,,,,,,,LDHA inhibitory activity (LDHA): did not exhibit an LDHA inhibitory activity
O=C(OCc1ccc2c(c1)OCO2)c1ccc(Br)cc1 [Compound 1],> 1000 µM,79 µM,> 1000 µM,> 1000 µM,> 1000 µM,> 1000 µM,> 1000 µM,
O=C(OCc1ccc2c(c1)OCO2)c1ccc(C(F)(F)F)cc1 [Compound 2],13.6 µM,395 µM,> 1000 µM,> 1000 µM,> 1000 µM,> 1000 µM,> 1000 µM,LDHB/LDHA [1]: 29.00; GI50 (several cancer cells): > 1000 µM
O=C(OCc1ccc2c(c1)OCO2)c1ccc(I)cc1 [Compound 3],> 1000 µM,151 µM,> 1000 µM,> 1000 µM,> 1000 µM,269 µM,> 1000 µM,
Nc1cccc(C(=O)OCc2ccc3c(c2)OCO3)c1 [Compound 4],182 µM,7.87 µM,> 1000 µM,729 µM,> 1000 µM,203 µM,380 µM,LDHB/LDHA [1]: 0.043
O=C(OCc1ccc2c(c1)OCO2)c1ccc(F)cc1 [Compound 5],478 µM,> 1000 µM,> 1000 µM,> 1000 µM,> 1000 µM,644 µM,> 1000 µM,
O=C(CC(F)(F)F)OCc1ccc2c(c1)OCO2 [Compound 6],452 µM,130 µM,> 1000 µM,> 1000 µM,> 1000 µM,> 1000 µM,> 1000 µM,LDHB/LDHA [1]: 0.29
O=C(OCc1ccc2c(c1)OCO2)c1ccccc1 [Compound 7],843 µM,> 1000 µM,> 1000 µM,> 1000 µM,> 1000 µM,243 µM,> 1000 µM,LDHB/LDHA [1]: > 1.18
Cc1ccc(C(=O)OCc2ccc3c(c2)OCO3)cc1 [Compound 8],> 1000 µM,248 µM,> 1000 µM,> 1000 µM,> 1000 µM,86.5 µM,> 1000 µM,
O=C(OCc1ccc2c(c1)OCO2)c1ccc([Se]c2ccccc2)cc1 [Compound 9],,,,,,,,"IC50 [1]: > 1000 µM; IC50 ([2]; LDHB IC50, synthesized compounds): 1000 µM and 151 µM; GI50 ([3]; A549, 48 h): 925 µM; GI50 ([4]; MCF7, 48 h): 455 µM; GI50 ([5]; MIA PaCa-2, 48 h): 108 µM; GI50 ([6]; Homo sapiens, PANC-1, 48 h): 21.1 µM; GI50 (human glioma U87 cells): > 1000 µM"
CCOC(=O)[C@H](CCc1ccccc1)N[C@@H](C)C(=O)N1CCC[C@H]1C(=O)O [Enalapril],,,,,,,,remaining at 0.5 h (in vitro [7]): 95%; remaining at 2 h (in vitro [7]): 93.7%; remaining at 0.5 h (in vitro [8]): 37.7%; remaining at 2 h (in vitro [8]): 1.8%
"COc1ncc(-c2ccc3c(Nc4cc(Oc5cc(F)cc(F)c5)cc(C(=O)O)c4)c(S(=O)(=O)NC4CC4)cnc3c2)c(OC)n1 [GSK2837808A, reference compound]",,,,,,,,"GI50 ([6]; MTT, 48 h): 11.3 µM"
"CC(=O)N1CCN(c2ccc(OCC3COC(Cn4ccnc4)(c4ccc(Cl)cc4Cl)O3)cc2)CC1 (stereo not drawn) [Ketoconazole, reference compound]",,,,,,,,CYP2C19 isozyme activity (% of control activity) (CYP2C19): > 100 % of control activity; CYP2C9 isozyme activity (% of control activity) (CYP2C9): 97.5 % of control activity; CYP1A2 isozyme activity (% of control activity) (CYP1A2): 99.1 % of control activity
C[C@H](Cc1ccc2c(c1)OCO2)[C@@H](C)Cc1ccc2c(c1)OCO2 [Machilin A],,,,,,,,IC50 (LDHA): 84 µM
CCN(CC)CCOC(=O)c1ccc(N)cc1 [Procaine],,,,,,,,remaining at 5 min (in vitro [7]): 1.5%; remaining at 10 min (in vitro [7]): 0.4%; remaining at 0.5 h (in vitro [8]): 89.8%; remaining at 2 h (in vitro [8]): 52.6%
OCc1ccc2c(c1)OCO2 [piperonyl alcohol],,,,,,,,LDHA inhibitory activity (LDHA): did not exhibit an LDHA inhibitory activity
GNE140 [reference compound],,,,,,,,"GI50 ([6]; MTT, 48 h): 11.6 µM and 11.9 µM"
